From patent publication US9181258B2, “Substituted 3,4-dihydropyrrolo[1,2-a]pyrazin-1(2H)-ones as protein kinase inhibitors” (NERVIANO MEDICAL SCIENCES S.R.L., priority 2011, dated 2015) come the findings set out here.

Experiment [1] relates to MV-4-11 cells. Put plainly: In vitro cell proliferation assay (CellTiter-Glo), MV-4-11. The experiment is classed as cell-based. As to conditions: Homo sapiens, MV4-11, 72 hours. For orientation: ATP-based viability assays read luminescence as a measure of living cells.
The subject of experiment [2] is BaF3-PIM1 cells. Put plainly: In vitro cell proliferation assay (CellTiter-Glo), BaF3-PIM1. Format: cell-based. As to conditions: 72 hours.
Experiment [3] deals with human PIM1 (Homo sapiens (Human), UniProt P11309). Put plainly: Biochemical assay for inhibitors of PIM1 kinase activity (trans-phosphorylation, Dowex technique). Conditions: ATP 200 μM, Aktide 25 μM, enzyme 1 nM; read-out: PIM-1 IC50. Summed up: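 Full-length human PIM1 (1 nM) phosphorylates Aktide (25 μM) with 200 μM ATP plus 6 nM ^33P-γ-ATP in HEPES 50 mM pH 7.5, 10 mM MgCl2, 1 mM DTT, 3 μM NaVO3, 0.2 mg/mL BSA. Unreacted ATP captured on Dowex resin, supernatant β-counted; IC50 from ten-point 1:3 dilution sigmoidal fit.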

Experiment [4] concerns the target human PIM2 (Homo sapiens (Human), UniProt Q9P1W9). Briefly: PIM2 kinase inhibition assay: Dowex technique. Conditions: ATP 4 μM, Aktide 5 μM, enzyme 1.5 nM; read-out: PIM-2 IC50. The experiment is classed as biochemical. Summed up: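 Radiometric Dowex read-out, run as for PIM1, with 50 mM HEPES pH 7.5, 1 mM MgCl2, 1 mM DTT, 3 μM Na3VO4 and 0.2 mg/mL BSA. Final conditions: 5 μM Aktide substrate, 4 μM ATP spiked with 1 nM 33P-γ-ATP, 1.5 nM full-length human enzyme.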

human PIM1, sequence (P11309 whole entry): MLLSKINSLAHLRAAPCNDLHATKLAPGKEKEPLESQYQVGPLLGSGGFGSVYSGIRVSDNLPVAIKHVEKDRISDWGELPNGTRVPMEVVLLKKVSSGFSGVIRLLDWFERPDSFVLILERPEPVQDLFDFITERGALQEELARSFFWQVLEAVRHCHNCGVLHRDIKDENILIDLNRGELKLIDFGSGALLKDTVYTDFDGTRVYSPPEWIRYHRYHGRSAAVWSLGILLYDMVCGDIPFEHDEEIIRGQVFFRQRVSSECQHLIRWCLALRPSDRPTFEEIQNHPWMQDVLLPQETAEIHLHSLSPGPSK
human PIM2, sequence (Q9P1W9 whole entry): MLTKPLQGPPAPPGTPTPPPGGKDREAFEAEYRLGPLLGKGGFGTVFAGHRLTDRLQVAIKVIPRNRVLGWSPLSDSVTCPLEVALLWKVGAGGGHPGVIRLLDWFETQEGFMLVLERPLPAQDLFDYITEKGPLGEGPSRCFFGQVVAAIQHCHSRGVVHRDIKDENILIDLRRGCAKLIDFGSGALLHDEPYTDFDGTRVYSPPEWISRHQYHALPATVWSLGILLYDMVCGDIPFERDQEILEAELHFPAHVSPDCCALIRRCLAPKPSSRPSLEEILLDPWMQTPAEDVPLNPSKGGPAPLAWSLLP

The IC50 is the midpoint of a concentration-inhibition curve. As to `CC(=O)NCC[C@H]1CNC(=O)c2cc(-c3cccc(OC(F)(F)F)c3)c(-c3ccccc3)n21` [Compound 142, N-(2-{(4S)-1-oxo-6-phenyl-7-[3-(trifluoromethoxy)phenyl]-1,2,3,4-tetrahydropyrrolo[1,2-a]pyrazin-4-yl}ethyl)acetamide], the IC50 in experiment [1] was found to be 4890 nM; in experiment [2], 491 nM; in experiment [3], 34 nM; in experiment [4] it was 174 nM.

Take `CS(=O)(=O)NCC[C@H]1CNC(=O)c2cc(-c3cccc(OC(F)(F)F)c3)c(-c3ccccc3)n21` [Compound 147, N-(2-{(4S)-1-oxo-6-phenyl-7-[3-(trifluoromethoxy)phenyl]-1,2,3,4-tetrahydropyrrolo[1,2-a]pyrazin-4-yl}ethyl)methanesulfonamide]: the IC50 came out at 3620 nM in experiment [1], 638 nM in experiment [2], 26 nM in experiment [3] and 172 nM in experiment [4].
